Where two headings read alike, the source gives them in different places.
Experiments:
[1] = Pharmacokinetics in CD-1 mice, IV; assay type: in vivo; conditions: for Auclast / Cmax / MRT inf / Tmax / half-life / AUC(0-t) / clearance / Vd: intravenously 5 mg/kg; for blood–brain barrier crossing (in words) / clearance (in words): IV 5 mg/kg; for Cmax / MRT inf / Tmax / half-life / AUC(0-t) / clearance / Vd: male, mouse, iv; for half-life: read-out: Terminal t1/2; for Vd: read-out: Vss
Method: Analysis of pharmacokinetic parameters of 18A and 18B was performed by the Preclinical Pharmacology Core Lab (UT Southwestern Medical Center). Animal work described in this manuscript has been approved and conducted under the oversight of the UT Southwestern Institutional Animal Care and Use Committee and were carried out in accordance with relevant guidelines and regulations. UT Southwestern uses the “Guide for the Care and Use of Laboratory Animals” when establishing animal research standards. All methods are reported in accordance with ARRIVE guidelines. Compounds were suspended in 10% DMSO/20% PEG400/70% (30% HPβCD in water) at 0.484 mg/mL (18A) or at 0.5 mg/mL (18B). Compounds were administered to male CD1 mice (Charles River Laboratories, Wilmington, MA) IV via the tail vein at 5 mg/kg (0.30 mL dose volume for 18A, 0.35 mL dose volume for 18B). Mice were randomly assigned to time point groups and all investigators were aware of these assignments. After inhalation overdose of CO2, blood and tissues were collected from three mice per timepoint, at 5, 15, 30, 60, 240, 360, and 480 min post dosing, such that a mean concentration and standard deviation about the mean could be reported. Blood and tissues were also collected from mice dosed with Vehicle only at 480 min. Blood was collected using the anticoagulant ACD (acidified citrate dextrose) and plasma was isolated from the blood by centrifugation at 4 °C, 9600 × g for 10 min. After rinsing with PBS, tissues were weighed, snap-frozen in liquid nitrogen and stored at − 80 °C until processing. Brain was homogenized in a three-fold volume of PBS (weight by volume). Plasma and brain homogenates were extracted using a two-fold volume of methanol containing 0.15% formic acid and 37.5 ng/ml of an internal standard, n-benzylbenzamide (Sigma, St. Louis, MO). Samples were vortexed for 15 s, incubated at RT for 10 min and then centrifuged at 16,100 × g for 5 min at 4 °C. The supernatant was spun a second time and then analyzed by LC–MS/MS using a Sciex (Framingham, MA) 4000QTRAP® (positive ESI, multiple-reaction monitoring mode) after separation on an Agilent (Santa Clara, CA) C18 XDB column (5 micron packing, 50 × 4.6 mm size). The following separation gradient was used (Buffer A: water with 0.1% formic acid; Buffer B: MeOH with 0.1% formic acid): 0–1 min 5% B, 1–1.5 min gradient to 100% B, 1.5–3 min 100% B, 3–3.2 min gradient to 5% B, 3.2–4.5 min 5% B. For 18A, the transition (m/z) of 336.0/305.0 was monitored (retention time: 2.08 min); for 18B, the transition (m/z) of 336.1/169.0 was monitored (retention time: 2.09 min). The transition 212.1/91.1 (retention time 2.05 min) was monitored for the internal standard, n-benzylbenzamide. Tissues and plasma from untreated mice were used as controls to establish background noise for LC–MS/MS analysis of compound levels. Pharmacokinetic parameters were calculated using sparse sampling and the noncompartmental analysis tool in WinNonlin (Certara Corp, Princeton, NJ) for plasma and brain. Because mice were not perfused prior to collection of brain, the amount of compound estimated to be in the vasculature of the brain was subtracted using the measured plasma concentration and literature values for the volume of residual blood (30 µl/g tissue) in the brain Kwon[102].

[2] = tested on: PGRN protein levels; experiment: PGRN quantification (Jess) in GRN R493X/+ NPCs; assay type: cell-based, human; conditions: 24 h
Method: (§1) PGRN capillary gel electrophoresis experiments were performed using Jess (Bio-Techne) and data were processed and analyzed using Compass for Simple Western software (version 6.0). Runs were conducted using EZ Standard Pack 1 12–230 kDa (Bio-Techne PS-ST01EZ-8), 12–230 kDa pre-filled plates (PS-PP03), 12–230 kDa separation module (SMW004), anti-rabbit HRP detection (DM-001), RePlex (RP-001), and total protein detection modules (DM-TP01, biotin labeling reagent 042-973) according to the manufacturer’s instructions, and with anti-PGRN primary (Abcam ab208777) diluted 1:50 in milk-free antibody dilution buffer (043–524). The following run settings were used for each experiment: separation time: 25 min, separation voltage: 375 V, RePlex purge time: 30 min, biotin labeling time: 30 min, antibody diluent time: 5 min, primary antibody time: 30 min, secondary antibody time: 30 min, total protein HRP time: 30 min. All intensity quantifications are normalized to the total protein assay quantification unless otherwise indicated.
(§2) For GRN^R493^X/+ NPCs, cells were grown to confluency in 6-well plates according to the above NPC culturing procedure. To each well was directly added 2 µL of 100 µM panobinostat, […], or DMSO only to produce final in-well concentrations of 100 nM or 1 µM, respectively (0.1% DMSO final concentration). […]

[3] = tested on: BRD4 protein levels; experiment: Immunoblotting of BRD4 in human NPCs; assay type: cell-based; conditions: co-treatment with MLN-4924 (1 µM) and mivebresib (1 µM)
Method: Gels were then transferred onto PVDF membranes (Immobilon-P, Millipore IPVH00010). […] Membranes were washed with TBST for 1 h, and developed with the chemiluminescence reagents used above.
NPCs were cultured normally in 6-well plates as described previously. […] Plates returned to the incubator. […] Plates returned to the incubator. After 4 h, to the indicated wells is directly added 1 µL 2 mM mivebresib (MedChem Express HY-100015) in DMSO for a final concentration of 1 µM, or 1 µL DMSO. All plates were returned to the incubator overnight. […] 200 µL of supernatant was then transferred to a fresh, labeled Eppendorf rube, which was then stored at − 20 °C prior to further analysis. Sample concentration was quantified using the BCA assay as described above, and normalized to 250 µg/mL in M-PER lysis buffer prior to PGRN quantification using the Jess.

[4] = target: recombinant BRD4 BD1; set-up: method as in PMID 31969702, PMID 32193360, doi:10.1002/anse.202200020; conditions: read-out: KD against recombinant BRD4 BD1; cited from earlier work
[5] = target: recombinant BRD4 BD2; set-up: method as in PMID 31969702, PMID 32193360, doi:10.1002/anse.202200020; conditions: read-out: KD against recombinant BRD4 BD2; cited from earlier work
[6] = tested on: PGRN protein levels; experiment: PGRN quantification (Jess) in GRN R493X/+ 14-day differentiated neurons; assay type: cell-based, human; conditions: GRN R493X/+ 14-day growth factor differentiated neurons, 24 h
Method: as §1, §2

SMILES | Auclast ([1]; Brain) | blood–brain barrier crossing (in words) [1] | clearance (in words) [1] | Cmax ([1]; Brain) | MRT inf ([1]; Brain) | Tmax ([1]; Brain) | half-life ([1]; Brain) | AUC(0-t) ([1]; Plasma) | Cmax ([1]; Plasma) | MRT inf ([1]; Plasma) | Tmax ([1]; Plasma) | clearance ([1]; Plasma) | half-life ([1]; Plasma) | Vd ([1]; Plasma) | PGRN protein levels [2] | enhancement of BRD4 protein levels [3] | Kd [4] | Kd [5] | PGRN protein levels [6]
Cn1cc(-c2cccnc2Oc2ccc(F)cc2)c2cc[nH]c2c1=O [Compound 18A, 4-(2-(4-fluorophenoxy)pyridin-3-yl)-6-methyl-1H-pyrrolo[2,3-c]pyridin-7(6H)-one] | 63285 ng·min/g | readily cross the blood–brain barrier | cleared quite rapidly | 2970 ng/g | 16.7 min | 5 min | 30 min | 658 ng·h/mL | 1780 ng/mL | 17.9 min | 5 min | 3.67 mL/min | 27 min | 0.067 L | – | – | – | – | –
Cn1ccc2c(-c3cccnc3Oc3ccc(F)cc3)c[nH]c2c1=O [Compound 18B, 3-[2-(4-fluorophenoxy)pyridin-3-yl]-6-methyl-1,6-dihydro-7H-pyrrolo[2,3-c]pyridin-7-one] | 31579 ng·min/g | readily cross the blood–brain barrier | cleared quite rapidly | 1690 ng/g | 17.6 min | 5 min | 73 min | 511 ng·h/mL | 1620 ng/mL | 25.8 min | 5 min | 5.61 mL/min | 140 min | 0.145 L | – | – | – | – | –
CCS(=O)(=O)Nc1ccc(Oc2ccc(F)cc2F)c(-c2cn(C)c(=O)c3[nH]ccc23)c1 [mivebresib] | – | – | – | – | – | – | – | – | – | – | – | – | – | – | significantly increased PGRN protein levels | ~ fourfold | ≤ 2.8 nM | ≤ 2 nM | significantly increased PGRN protein levels

Reference: PMC11032351, “Epigenetic modulation through BET bromodomain inhibitors as a novel therapeutic strategy for progranulin-deficient frontotemporal dementia” (Scientific Reports, 2024)
